The target of series [1] is T1, 5-HT3(h) (antagonist radioligand) (Homo sapiens, UniProt P46098).
T1 construct: purchased ActivX Biosciences (KiNativ)
Put plainly: Eurofins Safety Screen 44. In kind it is binding. The conditions noted are these: read-out: % Inhibition of Control Values.

In series [2] the target is T2, α1A(h) (antagonist radioligand) (Homo sapiens, UniProt P35348).
T2 construct: purchased ActivX Biosciences (KiNativ)
Put plainly: Eurofins Safety Screen 44. The series is classed as binding. To be noted: read-out: % Inhibition of Control Values.

Series [3] addresses T3, 5-HT1A(h) (agonist radioligand) (Homo sapiens, UniProt P08908).
T3 construct: purchased ActivX Biosciences (KiNativ)
Briefly: Eurofins Safety Screen 44. The series is classed as binding. To be noted: read-out: % Inhibition of Control Values.

Series [4] addresses T4, CCK1 (CCKA) (h) (agonist radioligand) (Homo sapiens, UniProt P32238).
T4 construct: purchased ActivX Biosciences (KiNativ)
Put plainly: Eurofins Safety Screen 44. In kind it is binding. To be noted: read-out: % Inhibition of Control Values.

Series [5] addresses T5, N neuronal α4β2 (h) (agonist radioligand) (Homo sapiens, UniProt P17787+P43681).
T5 construct: purchased ActivX Biosciences (KiNativ)
Briefly: Eurofins Safety Screen 44. The series is classed as binding. The conditions noted are these: read-out: % Inhibition of Control Values.

Series [6] addresses T6, M3(h) (antagonist radioligand) (Homo sapiens, UniProt P20309).
T6 construct: purchased ActivX Biosciences (KiNativ)
Briefly: Eurofins Safety Screen 44. The series is classed as binding. To be noted: read-out: % Inhibition of Control Values.

In series [7] the target is T7, M1(h) (antagonist radioligand) (Homo sapiens, UniProt P11229).
T7 construct: purchased ActivX Biosciences (KiNativ)
Briefly: Eurofins Safety Screen 44. In kind it is binding. To be noted: read-out: % Inhibition of Control Values.

For series [8], the target named is T8, δ (DOP) (h) (agonist radioligand) (Homo sapiens, UniProt P41143).
T8 construct: purchased ActivX Biosciences (KiNativ)
Briefly: Eurofins Safety Screen 44. The conditions noted are these: read-out: % Inhibition of Control Values. In kind it is binding.

Series [9] concerns the target T9, kappa (h) (KOP) (agonist radioligand) (Homo sapiens, UniProt P41145).
T9 construct: purchased ActivX Biosciences (KiNativ)
Put plainly: Eurofins Safety Screen 44. In kind it is binding. The conditions noted are these: read-out: % Inhibition of Control Values.

Another series deals with T10, PDE4D2 (h) (Homo sapiens, UniProt Q08499).
T10 construct: Eurofins (ran the panel)
Briefly: Eurofins Safety Screen 44. In kind it is biochemical. The conditions noted are these: read-out: % Inhibition of Control Values.

Series [10] deals with T11, CB1(h) (agonist radioligand) (Homo sapiens, UniProt P21554).
T11 construct: purchased ActivX Biosciences (KiNativ)
Briefly: Eurofins Safety Screen 44. To be noted: read-out: % Inhibition of Control Values. In kind it is binding.

Series [11] has as its system KV channel (antagonist radioligand). Put plainly: Eurofins Safety Screen 44. The series is classed as binding. To be noted: 10 µM.
Another series addresses hERG potassium channel (Homo sapiens, UniProt Q12809). Put plainly: Eurofins Safety Screen 44. To be noted: probe [3H] Dofetilide.
For series [12], the target named is T12, H1(h) (antagonist radioligand) (Homo sapiens, UniProt P35367).
T12 construct: purchased ActivX Biosciences (KiNativ)
T12 sequence (P35367 whole entry): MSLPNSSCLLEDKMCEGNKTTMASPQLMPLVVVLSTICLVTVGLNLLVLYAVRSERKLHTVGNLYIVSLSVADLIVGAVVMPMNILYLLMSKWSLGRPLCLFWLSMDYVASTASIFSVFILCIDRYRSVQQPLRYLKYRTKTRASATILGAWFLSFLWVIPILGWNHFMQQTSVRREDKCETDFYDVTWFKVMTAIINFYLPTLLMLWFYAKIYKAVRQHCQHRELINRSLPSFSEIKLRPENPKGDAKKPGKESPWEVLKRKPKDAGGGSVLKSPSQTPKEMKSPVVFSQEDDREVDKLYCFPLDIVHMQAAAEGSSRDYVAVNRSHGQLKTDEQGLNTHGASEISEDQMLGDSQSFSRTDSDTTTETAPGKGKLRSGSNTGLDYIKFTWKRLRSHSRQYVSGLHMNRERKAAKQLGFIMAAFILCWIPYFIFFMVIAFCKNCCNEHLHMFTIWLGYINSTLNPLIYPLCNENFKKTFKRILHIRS
Put plainly: Eurofins Safety Screen 44. The conditions noted are these: read-out: % Inhibition of Control Values. In kind it is binding.

The target of a further series is T13, acetylcholinesterase (h) (Homo sapiens, UniProt P22303).
T13 construct: Eurofins (ran the panel)
T13 sequence (P22303 32-614): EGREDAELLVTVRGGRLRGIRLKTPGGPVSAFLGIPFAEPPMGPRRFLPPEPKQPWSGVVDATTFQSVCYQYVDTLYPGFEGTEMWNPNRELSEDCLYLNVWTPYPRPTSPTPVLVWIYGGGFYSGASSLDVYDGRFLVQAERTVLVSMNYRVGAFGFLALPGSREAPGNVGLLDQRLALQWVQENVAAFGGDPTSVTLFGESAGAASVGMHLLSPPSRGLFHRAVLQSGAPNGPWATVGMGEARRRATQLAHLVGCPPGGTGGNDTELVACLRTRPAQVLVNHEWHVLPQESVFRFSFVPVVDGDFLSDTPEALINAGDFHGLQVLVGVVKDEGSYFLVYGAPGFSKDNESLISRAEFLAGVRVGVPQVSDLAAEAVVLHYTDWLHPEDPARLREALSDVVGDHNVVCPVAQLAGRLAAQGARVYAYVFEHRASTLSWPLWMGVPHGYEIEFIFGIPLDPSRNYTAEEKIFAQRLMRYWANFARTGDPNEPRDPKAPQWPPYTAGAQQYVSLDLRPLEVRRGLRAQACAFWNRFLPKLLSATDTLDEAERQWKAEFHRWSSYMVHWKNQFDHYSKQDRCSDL
Briefly: Eurofins Safety Screen 44. In kind it is biochemical. The conditions noted are these: read-out: % Inhibition of Control Values.

The target of series [13] is T14, 5-HT transporter (h) (antagonist radioligand) (Homo sapiens, UniProt P31645).
T14 construct: Eurofins (ran the panel)
T14 sequence (P31645 whole entry): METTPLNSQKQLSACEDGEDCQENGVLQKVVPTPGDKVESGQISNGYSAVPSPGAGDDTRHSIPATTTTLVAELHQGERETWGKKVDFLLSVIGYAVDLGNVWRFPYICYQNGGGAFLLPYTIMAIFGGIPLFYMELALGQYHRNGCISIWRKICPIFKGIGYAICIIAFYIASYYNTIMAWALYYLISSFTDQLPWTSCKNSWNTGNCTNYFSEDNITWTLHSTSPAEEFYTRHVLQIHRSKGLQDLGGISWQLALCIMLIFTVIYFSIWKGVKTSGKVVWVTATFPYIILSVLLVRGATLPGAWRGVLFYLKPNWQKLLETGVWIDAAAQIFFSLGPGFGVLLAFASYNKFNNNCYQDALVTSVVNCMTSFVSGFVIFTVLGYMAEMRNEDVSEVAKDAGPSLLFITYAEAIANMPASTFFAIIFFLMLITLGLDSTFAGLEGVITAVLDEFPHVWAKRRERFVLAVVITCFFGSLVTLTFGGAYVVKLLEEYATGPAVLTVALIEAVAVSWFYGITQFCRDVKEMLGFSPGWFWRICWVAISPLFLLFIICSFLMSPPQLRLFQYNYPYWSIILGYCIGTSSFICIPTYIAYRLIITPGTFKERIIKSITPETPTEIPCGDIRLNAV
Briefly: Eurofins Safety Screen 44. In kind it is binding. To be noted: read-out: % Inhibition of Control Values.

Series [14] concerns Safety Screen 44 off-targets. Briefly: Eurofins Safety Screen 44, whole panel. The conditions noted are these: 10 µM.
Series [15] has as its system Ca2+ channel (L, dihydropyridine site) (antagonist radioligand). Briefly: Eurofins Safety Screen 44. The series is classed as binding. To be noted: 10 µM.
Series [16] has as its target T15, α2A(h) (antagonist radioligand) (Homo sapiens, UniProt P08913).
T15 construct: purchased ActivX Biosciences (KiNativ)
Briefly: Eurofins Safety Screen 44. The conditions noted are these: read-out: % Inhibition of Control Values. The series is classed as binding.

The target in series [17] is T16, norepinephrine transporter(h) (antagonist radioligand) (Homo sapiens, UniProt P23975).
T16 construct: purchased ActivX Biosciences (KiNativ)
T16 sequence (P23975 whole entry): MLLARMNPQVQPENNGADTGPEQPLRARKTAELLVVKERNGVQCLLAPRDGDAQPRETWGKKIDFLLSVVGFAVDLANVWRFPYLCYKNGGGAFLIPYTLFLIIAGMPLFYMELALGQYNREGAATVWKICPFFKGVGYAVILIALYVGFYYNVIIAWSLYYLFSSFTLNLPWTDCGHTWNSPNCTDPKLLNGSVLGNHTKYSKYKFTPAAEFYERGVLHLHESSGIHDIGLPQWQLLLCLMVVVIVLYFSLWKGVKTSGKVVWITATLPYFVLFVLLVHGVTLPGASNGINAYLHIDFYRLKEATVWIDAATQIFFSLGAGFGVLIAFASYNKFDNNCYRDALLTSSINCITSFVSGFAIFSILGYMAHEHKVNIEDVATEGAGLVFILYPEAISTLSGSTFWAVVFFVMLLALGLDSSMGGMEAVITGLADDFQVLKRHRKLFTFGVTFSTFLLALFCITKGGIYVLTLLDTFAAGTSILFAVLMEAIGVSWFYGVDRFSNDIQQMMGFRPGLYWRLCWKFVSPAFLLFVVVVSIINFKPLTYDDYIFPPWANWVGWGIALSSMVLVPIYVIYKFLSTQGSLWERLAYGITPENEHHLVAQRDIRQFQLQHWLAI
Briefly: Eurofins Safety Screen 44. The series is classed as binding. To be noted: read-out: % Inhibition of Control Values.

Series [18] concerns the target T17, 5-HT2A(h) (agonist radioligand) (Homo sapiens, UniProt P28223).
T17 construct: purchased ActivX Biosciences (KiNativ)
Briefly: Eurofins Safety Screen 44. The conditions noted are these: read-out: % Inhibition of Control Values. The series is classed as binding.

Series [19] concerns AKT S473 phosphorylation (mTORC2). Put plainly: AlphaLISA/MSD analysis of AKT phosphorylation in MDA-MB-468 cells. The series is classed as cell-based. The conditions noted are these: Homo sapiens, MDA-MB-468, read-out: pAKT IC50. A general note: In Alpha technology, singlet oxygen from a donor bead excites a nearby acceptor bead.
For series [20], the target named is T18, 5-HT2B(h) (agonist radioligand) (Homo sapiens, UniProt P41595).
T18 construct: purchased ActivX Biosciences (KiNativ)
Briefly: Eurofins Safety Screen 44. To be noted: read-out: % Inhibition of Control Values. The series is classed as binding.

In series [21] the test system is BZD (central) (agonist radioligand). Put plainly: Eurofins Safety Screen 44. The conditions noted are these: 10 µM. The series is classed as binding.
Another series has as its target T19, COX2(h) (Homo sapiens, UniProt P35354).
T19 construct: Eurofins (ran the panel)
Put plainly: Eurofins Safety Screen 44. The series is classed as biochemical. To be noted: read-out: % Inhibition of Control Values.

Series [22] deals with T20, μ (MOP) (h) (agonist radioligand) (Homo sapiens, UniProt P35372).
T20 construct: purchased ActivX Biosciences (KiNativ)
Put plainly: Eurofins Safety Screen 44. The series is classed as binding. The conditions noted are these: read-out: % Inhibition of Control Values.

The target of series [23] is T21, M2 (h) (antagonist radioligand) (Homo sapiens, UniProt P08172).
T21 construct: purchased ActivX Biosciences (KiNativ)
Put plainly: Eurofins Safety Screen 44. The series is classed as binding. To be noted: read-out: % Inhibition of Control Values.

The target of series [24] is T22, 5-HT1B (h) (antagonist radioligand) (Homo sapiens, UniProt P28222).
T22 construct: purchased ActivX Biosciences (KiNativ)
Put plainly: Eurofins Safety Screen 44. In kind it is binding. To be noted: read-out: % Inhibition of Control Values.

Series [25] has as its target T23, A2A(h) (agonist radioligand) (Homo sapiens, UniProt P29274).
T23 construct: purchased ActivX Biosciences (KiNativ)
Put plainly: Eurofins Safety Screen 44. The series is classed as binding. The conditions noted are these: read-out: % Inhibition of Control Values.

The test system of series [26] is NMDA (antagonist radioligand). Put plainly: Eurofins Safety Screen 44. In kind it is binding. To be noted: 10 µM.
Series [27] deals with RSK1 domain1, RSK2 domain1, RSK3 domain1. Put plainly: KiNativ kinase panel. In kind it is cell-based, human. To be noted: 1 μM; MCF-7 Cells; Lys2; DLKPENILLDEEGHIK
Another series has as its system ROCK1, ROCK2. Put plainly: KiNativ kinase panel. The series is classed as cell-based, human. The conditions noted are these: 1 μM; MCF-7 Cells; Lys1; VYAMKLLSK

The structures appear in SMILES notation. Some results are limits rather than exact numbers.

T9 sequence (P41145 whole entry): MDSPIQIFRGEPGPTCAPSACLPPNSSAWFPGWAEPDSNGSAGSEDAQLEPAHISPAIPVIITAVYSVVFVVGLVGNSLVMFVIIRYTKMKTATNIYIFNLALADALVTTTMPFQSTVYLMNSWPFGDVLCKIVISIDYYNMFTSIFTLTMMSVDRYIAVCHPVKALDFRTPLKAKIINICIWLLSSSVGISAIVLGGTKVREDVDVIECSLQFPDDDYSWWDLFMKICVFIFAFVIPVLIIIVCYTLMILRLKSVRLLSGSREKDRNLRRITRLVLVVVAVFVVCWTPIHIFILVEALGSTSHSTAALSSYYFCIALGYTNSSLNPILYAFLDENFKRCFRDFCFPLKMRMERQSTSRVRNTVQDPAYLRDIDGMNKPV
T6 sequence (P20309 whole entry): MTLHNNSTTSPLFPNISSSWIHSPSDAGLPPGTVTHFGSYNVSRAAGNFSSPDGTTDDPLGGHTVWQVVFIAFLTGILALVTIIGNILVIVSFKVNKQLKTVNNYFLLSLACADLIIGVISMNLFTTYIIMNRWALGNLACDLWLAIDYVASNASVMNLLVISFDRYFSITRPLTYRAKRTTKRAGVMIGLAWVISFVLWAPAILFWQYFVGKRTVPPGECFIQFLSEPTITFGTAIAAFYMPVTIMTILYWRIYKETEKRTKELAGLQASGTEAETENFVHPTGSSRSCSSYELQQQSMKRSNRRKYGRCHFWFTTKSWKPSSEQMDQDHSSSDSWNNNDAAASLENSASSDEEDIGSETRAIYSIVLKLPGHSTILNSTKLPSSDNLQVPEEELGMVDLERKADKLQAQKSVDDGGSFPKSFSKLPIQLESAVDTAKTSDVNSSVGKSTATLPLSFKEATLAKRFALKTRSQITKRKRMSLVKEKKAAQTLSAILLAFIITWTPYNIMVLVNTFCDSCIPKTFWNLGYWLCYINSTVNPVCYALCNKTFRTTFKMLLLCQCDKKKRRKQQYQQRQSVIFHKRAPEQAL
T2 sequence (P35348 whole entry): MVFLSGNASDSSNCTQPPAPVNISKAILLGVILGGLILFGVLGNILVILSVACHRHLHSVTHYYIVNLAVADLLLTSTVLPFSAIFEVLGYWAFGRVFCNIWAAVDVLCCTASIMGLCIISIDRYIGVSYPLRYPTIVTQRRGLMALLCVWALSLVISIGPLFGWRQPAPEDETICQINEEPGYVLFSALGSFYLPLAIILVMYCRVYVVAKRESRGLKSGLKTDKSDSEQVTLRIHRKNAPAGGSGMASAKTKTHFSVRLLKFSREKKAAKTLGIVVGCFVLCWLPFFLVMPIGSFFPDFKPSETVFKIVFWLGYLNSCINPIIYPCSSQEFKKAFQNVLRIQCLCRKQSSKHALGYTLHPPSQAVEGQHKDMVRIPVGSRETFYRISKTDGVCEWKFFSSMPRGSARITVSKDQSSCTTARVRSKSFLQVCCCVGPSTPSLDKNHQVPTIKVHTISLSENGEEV
T15 sequence (P08913 whole entry): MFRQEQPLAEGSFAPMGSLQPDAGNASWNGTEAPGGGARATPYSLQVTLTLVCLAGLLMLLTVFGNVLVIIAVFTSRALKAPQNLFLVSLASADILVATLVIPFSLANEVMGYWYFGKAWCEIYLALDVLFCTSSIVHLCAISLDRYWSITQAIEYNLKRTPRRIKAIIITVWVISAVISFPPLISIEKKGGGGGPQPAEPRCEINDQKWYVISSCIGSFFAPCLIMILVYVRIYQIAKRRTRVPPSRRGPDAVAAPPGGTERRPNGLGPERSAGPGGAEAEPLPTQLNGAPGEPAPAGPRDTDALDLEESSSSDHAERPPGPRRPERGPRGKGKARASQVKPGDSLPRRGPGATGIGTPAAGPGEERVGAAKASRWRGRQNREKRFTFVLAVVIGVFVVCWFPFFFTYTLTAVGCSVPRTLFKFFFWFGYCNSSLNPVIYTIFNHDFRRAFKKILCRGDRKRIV
T4 sequence (P32238 whole entry): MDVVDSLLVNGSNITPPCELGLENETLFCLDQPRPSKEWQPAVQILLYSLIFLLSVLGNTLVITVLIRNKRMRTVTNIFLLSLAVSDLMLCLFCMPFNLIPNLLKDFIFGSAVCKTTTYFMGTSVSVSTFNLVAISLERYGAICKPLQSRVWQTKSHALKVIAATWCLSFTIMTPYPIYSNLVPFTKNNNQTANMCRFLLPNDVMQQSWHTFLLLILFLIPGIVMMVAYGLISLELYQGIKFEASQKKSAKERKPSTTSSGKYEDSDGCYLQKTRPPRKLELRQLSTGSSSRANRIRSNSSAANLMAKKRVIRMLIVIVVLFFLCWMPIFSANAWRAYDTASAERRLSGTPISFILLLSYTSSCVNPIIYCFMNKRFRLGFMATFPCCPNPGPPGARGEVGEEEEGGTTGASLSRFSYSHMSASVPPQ

As usually defined, the inhibition is the change of the read-out against control, counted positive when it falls. By IC50 is commonly meant the concentration needed to halve the response being measured. Turning to `CO[C@H]1C[C@@H]2CC[C@@H](C)[C@@](O)(O2)C(=O)C(=O)N2CCCC[C@H]2C(=O)O[C@H]([C@H](C)C[C@@H]2CC[C@@H](OC(=O)NCCOCCOCCOCCOCCOCCOCCOCCOCCC(=O)N3CCc4cc(Cn5nc(-c6ccc7oc(N)nc7c6)c6c(N)ncnc65)ccc4C3)[C@H](OC)C2)C[C@@H](O)[C@H](C)/C=C(\C)[C@@H](O)[C@@H](OC)C(=O)[C@H](C)C[C@H](C)/C=C/C=C/C=C/1C` [compound 38], the inhibition at 10 µM in [1] was -4.6%; in series [2] it was 0.6%; in [3] it was -9.4%; in series [4] it was -51.3%; in series [5] it was -8.5%; in [6], -14.3%. Besides, the inhibition at 10 µM in series [7] was -5.4%; in series [8], 11.6%; in [9], 0.6%; on PDE4D2 (h), -45.6%; in [10], -26.1%; against hERG potassium channel, -1.2%. Also, the inhibition at 10 µM in series [12] was -12.6%; at acetylcholinesterase (h), -15.4%; in series [13], -4.5%; in series [16], -2.1%; in series [17] it was -15.7%; in [18], -28.9%. Besides, the inhibition at 10 µM was -14.5% in series [20]; 4.4% at COX2(h); 10.3% in series [22]; -3% in [23]; 13.1% in series [24]; -4.5% in series [25]. In addition, the “% Inhibition of Control Values” was -8.0% in series [11], -45.0% in series [15], 3.3% in series [21] and 13.7% in series [26]. In addition, the “Eurofins Safety Screen 44 inhibition” value in series [14] is listed as <5% inhibition (low promiscuity). For the same molecule, the “Eurofins Safety Screen 44 result” value in series [14] was “no significant inhibition”. Also, the IC50 in [19] stood at 0.019 µM.

For `CO[C@H]1C[C@@H]2CC[C@@H](C)[C@@](O)(O2)C(=O)C(=O)N2CCCC[C@H]2C(=O)O[C@H]([C@H](C)C[C@@H]2CC[C@@H](OC(=O)NCCOCCOCCOCCOCCOCCOCCOCCOCCC(=O)NCCS(=O)(=O)c3ccc(C(=O)N4CCOc5ccc(-c6ccc(N)nc6)cc5C4)c(C)c3F)[C@H](OC)C2)C[C@@H](O)[C@H](C)/C=C(\C)[C@@H](O)[C@@H](OC)C(=O)[C@H](C)C[C@H](C)/C=C/C=C/C=C/1C` [compound 40], the “KiNativ Kinase Panel Data” value in series [27] is 27.4; in the series with ROCK1, ROCK2, -42.0.

These data come from PMC9841523 (Journal of Medicinal Chemistry, 2022).
